Measurements: patent US5852007A, “Cysteine and serine protease inhibitors containing D-amino acid at the P2 position, methods of making same, and methods of using same” (priority 1997, dated 1998)
Read-outs that look alike come from different tables or passages of the source. Square brackets hold non-standard residues; d marks the D form. Peptide text beside a SMILES is read from it. * marks the point of attachment. ξ: configuration not given here. 2Pal = N[C@@H](Cc1ccccn1)C(=O)O; ξαMeL = CC(C)CC(C)(N)C(=O)O; Abu = CC[C@H](N)C(=O)O; Bn = c1ccc(C*)cc1; Ms = CS(=O)(=O)*

Experiments:
Format in all cases: biochemical
[1] = molecular target: T1, Recombinant human calpain I (Homo sapiens, UniProt P07384); assay: Inhibition of calpain I activity
T1 construct: made in house
T1 sequence (P07384 1-714): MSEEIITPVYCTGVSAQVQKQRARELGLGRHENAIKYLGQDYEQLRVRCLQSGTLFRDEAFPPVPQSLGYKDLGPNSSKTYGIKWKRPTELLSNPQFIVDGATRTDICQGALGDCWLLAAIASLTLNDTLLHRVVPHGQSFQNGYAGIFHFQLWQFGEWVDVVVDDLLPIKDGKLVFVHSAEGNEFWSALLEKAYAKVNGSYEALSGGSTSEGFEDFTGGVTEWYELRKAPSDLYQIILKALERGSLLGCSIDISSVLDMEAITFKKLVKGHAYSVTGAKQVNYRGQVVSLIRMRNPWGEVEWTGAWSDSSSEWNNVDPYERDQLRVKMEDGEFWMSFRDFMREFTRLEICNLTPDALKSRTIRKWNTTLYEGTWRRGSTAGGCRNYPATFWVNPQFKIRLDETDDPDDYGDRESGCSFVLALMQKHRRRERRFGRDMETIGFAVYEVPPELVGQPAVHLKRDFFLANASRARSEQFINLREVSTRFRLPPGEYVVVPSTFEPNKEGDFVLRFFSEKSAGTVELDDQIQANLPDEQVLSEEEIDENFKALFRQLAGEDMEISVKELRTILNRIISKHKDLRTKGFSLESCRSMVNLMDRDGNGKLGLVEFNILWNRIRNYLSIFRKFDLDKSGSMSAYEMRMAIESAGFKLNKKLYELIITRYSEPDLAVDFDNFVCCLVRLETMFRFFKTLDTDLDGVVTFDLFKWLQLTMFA
Protocol: To evaluate inhibitory activity, stock solutions (40 times concentrated) of exemplary compounds of the invention were prepared in 100% anhydrous DMSO and 5 μL of each inhibitor preparation were aliquoted into each of three wells of a 96-well plate. Recombinant human calpain I, prepared by the method of Meyer et al. (Biochem. […] To start the reaction, 20 μL of 50 mM CaCl2 in assay buffer was added to all wells of the plate, excepting three, which were used as background signal baseline controls. Substrate hydrolysis was monitored every 5 minutes for a total of 30 minutes. […] Inhibition of calpain I activity was calculated as the percent decrease in the rate of substrate hydrolysis in the presence of inhibitor (VI) relative to the rate in its absence (VO). Comparison between VO and VI was made within the linear range for substrate hydrolysis. For screening, compounds were tested at 10, 1.0, and 0.1 μM. […] The results were plotted as % inhibition versus log inhibitor concentration and the IC50 was calculated from linear regression of the data. Apparent second order rate constants were determined from analysis of reaction progress curves under pseudo-first order conditions. Each determination represents the means of three or more independent single cuvette analyses continually monitored via a Perkin-Elmer LS50B spectrofluorimeter. The rate of inhibition of hydrolysis was obtained by fitting the curve to the exponential equation (1): […]

cathepsin B = molecular target: T2, cathepsin B (Homo sapiens, UniProt P07858); assay: Inhibition of cathepsin B; details: Table III; for inhibition at 1 µM: read-out: Cat B % I @ 1 uM; for IC50: read-out: Cat B IC50
T2 construct: purchased Calbiochem 219364
Protocol: (§1) Additionally,the order of reagents added to the plate was altered because both enzymes are constitutively active. Following inhibitor addition to the plates, appropriate 2× concentrated stock dilutions of the enzyme preparations were made in assay buffer and 100 μl added to each well. The assay was initiated by addition of 100 μl of 2× concentrated stock dilution of substrate in assay buffer.

cathepsin L = molecular target: T3, cathepsin L (Homo sapiens, UniProt P07711); assay: Inhibition of cathepsin L; details: for inhibition at 1 µM: Table III, read-out: Cat L % I @ 1 uM
T3 construct: purchased Calbiochem 219402
Protocol: as §1

thrombin = molecular target: T4, thrombin (Homo sapiens, UniProt P00734); assay: Inhibition of thrombin; details: 10 uM, read-out: Thrombin % I @ 10 uM
T4 construct: purchased Sigma Chem. Co. T-7009

α-chymotrypsin = molecular target: T5, α-chymotrypsin (Bos taurus, UniProt P00766); assay: Inhibition of α-chymotrypsin; details: 10 uM, read-out: Chymotrypsin % I @ 10 uM
T5 construct: purchased Sigma Chem. Co. C-3142
Protocol: Additionally, because α-chymotrypsin is not a calcium sensitive enzyme and is constitutively active, following addition of inhibitor stocks to the 96 well plates, 100 μl of a 2-fold concentrated stock of enzyme in dilution buffer was first added and the reaction started by addition of 100 μl of a 2-fold concentrated stock of substrate in assay buffer. Substrate hydrolysis was monitored every 5 minutes up to 30 minutes using a Fluoroskan II ([…]).

T3 sequence (P07711 114-288 limits assumed): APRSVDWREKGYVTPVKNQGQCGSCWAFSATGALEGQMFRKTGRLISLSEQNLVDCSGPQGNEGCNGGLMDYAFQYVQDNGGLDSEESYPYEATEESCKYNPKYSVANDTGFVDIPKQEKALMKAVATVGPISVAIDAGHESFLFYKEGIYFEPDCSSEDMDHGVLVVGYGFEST
T3 sequence (P07711 292-333 limits assumed): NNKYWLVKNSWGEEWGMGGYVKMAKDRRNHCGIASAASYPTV

Row | SMILES | inhibition at 0.1 µM ([1]; Table III) | inhibition at 1 µM (cathepsin B) | inhibition at 1 µM (cathepsin L) | inhibition at 10 µM (thrombin; Table III) | inhibition at 10 µM (α-chymotrypsin; Table III) | IC50 ([1]; Table III) | IC50 (cathepsin B) | IC50 ([1]; Table II) | IC50 (cathepsin L; Table II, read-out: Cat L IC50) | inhibition at 10 µM (thrombin; Table II) | inhibition at 10 µM (α-chymotrypsin; Table II)
1 | CS(=O)(=O)N[C@H](COCc1ccccc1)C(=O)N[C@H](C=[N+]([O-])Cc1ccccc1)Cc1ccccc1 [Compound 117] | 21% | 95% | 100% | 0% | 0% | – | – | – | – | – | –
2 | Cc1ccc(S(=O)(=O)N[C@H](COCc2ccccc2)C(=O)N[C@H](C=O)Cc2ccccc2)cc1 [Compound 49] | 75% | 99% | 100% | 4% | 1% | 0.027 µM | – | – | – | – | –
3 | O=C[C@H](Cc1ccccc1)NC(=O)[C@@H](Cc1ccccc1)NS(=O)(=O)c1ccc2ccccc2c1 [Compound 72] | 91% | 100% | 100% | 13% | 7% | 0.014 µM | – | – | – | – | –
4 | CC[C@@H](C=O)NC(=O)[C@@H](COCc1ccccc1)NS(C)(=O)=O [Compound 41] (Ms-[dS](Bn)-[Abu]-aldehyde) | 67% | 42% | 100% | 2% | 0% | 0.05 µM | – | – | – | – | –
5 | CC(C)CC(C)(C=O)NC(=O)[C@@H](COCc1ccccc1)NS(C)(=O)=O (stereo partly drawn) [Compound 110] (Ms-[dS](Bn)-[ξαMeL]-aldehyde) | 10% | 12% | 83% | 0% | 0% | – | – | – | – | – | –
6 | CS(=O)(=O)N[C@H](COCc1ccccc1)C(=O)N[C@@H](Cc1ccccc1)C(=O)CCc1ccccc1 [Compound 125] | 0% | 47% | 39% | 4% | 0% | – | – | – | – | – | –
7 | Cc1ccc(S(=O)(=O)N2C[C@@H](C#N)C[C@@H]2C(=O)N[C@H](C=O)Cc2ccccc2)cc1 [Compound 129] | 73% | 64% | 100% | 1% | 6% | – | – | – | – | – | –
8 | CS(=O)(=O)N[C@@H](C(=O)N[C@H](C=O)Cc1ccccc1)c1cccs1 [Compound 98] | 96% | 98% | 100% | 16% | 49% | 0.008 µM | 0.016 µM | – | – | – | –
9 | CCNC(=O)OC[C@H](Cc1ccccc1)NC(=O)[C@H]1CCCN1S(=O)(=O)c1ccc(C)cc1 [Compound 123] | 7% | 16% | 14% | 0% | 2% | – | – | – | – | – | –
10 | CN1CCN(C)C1[C@H](Cc1ccccc1)NC(=O)[C@@H](COCc1ccccc1)NS(C)(=O)=O [Compound 133] | 93% | 100% | 100% | 0% | 1% | 0.013 µM | – | – | – | – | –
11 | Cn1cnc(S(=O)(=O)N[C@H](COCc2ccccc2)C(=O)N[C@H](C=O)Cc2ccccc2)c1 [Compound 63] | 41% | – | 100% | 1% | 40% | 0.075 µM | – | – | – | – | –
12 | CS(=O)(=O)N[C@H](COCc1ccccc1)C(=O)N[C@@H](Cc1ccccc1)C1OCCS1 (stereo partly drawn) [Compound 131] | 6% | 21% | 55% | 11% | 0% | – | – | – | – | – | –
13 | CS(=O)(=O)N[C@H](COCc1ccccc1)C(=O)N[C@H](C=O)Cc1ccccn1 [Compound 109] (Ms-[dS](Bn)-[2Pal]-aldehyde) | 59% | 70% | 98% | 0% | 0% | 0.04 µM | – | – | – | – | –
14 | CC(C)(C)OC(=O)NCCCC[C@@H](C=O)NC(=O)[C@@H](COCc1ccccc1)NS(C)(=O)=O [Compound 93] | 95% | 99% | 100% | 0% | 0% | 0.009 µM | – | – | – | – | –
15 | O=C[C@H](Cc1ccccc1)NC(=O)[C@@H](COCc1ccccc1)NS(=O)(=O)c1cccs1 [Compound 54] | 95% | 100% | 100% | 4% | 3% | 0.013 µM | – | – | – | – | –
16 | C[C@H](OCc1ccccc1)[C@@H](NS(C)(=O)=O)C(=O)N[C@H](C=O)Cc1ccccc1 [Compound 43] (Ms-[dT](Bn)-Phe-aldehyde) | 95% | 98% | 68% | 0% | 3% | 0.012 µM | 0.058 µM | – | – | – | –
17 | O=C[C@H](Cc1ccccc1)NC(=O)[C@@H](COCc1ccccc1)NS(=O)(=O)N1CCOCC1 [Compound 53] | 25% | 98% | 100% | 0% | 0% | 0.072 µM | – | – | – | – | –
18 | CC(C)(C)OC(=O)N[C@H](CC(=O)N1CCc2ccccc2C1)C(=O)N[C@H](C=O)Cc1ccccc1 [Compound 8, (R)-2-THIQ-C(=O)CH2 CH(NHBoc)C(=O)-Phe--H] | – | – | – | – | – | – | – | ~20 µM | 24 µM | 0% | 32%
19 | CC(C)C[C@@H](C=O)NC(=O)[C@@H](CC(C)C)NS(C)(=O)=O [Compound 87] | 23% | 86% | 96% | – | – | 0.095 µM | – | – | – | – | –
